27 compounds from patent publication US10329289B2, “6,7-dihydro-5H-pyrrolo[3,4-B]pyridin-5-one allosteric modulators of the M4 muscarinic acetylcholine receptor” (Merck Sharp & Dohme Corp., priority 2015, dated 2019) can be followed below.

The target of this assay is T1, human M4 muscarinic acetylcholine receptor (Homo sapiens, UniProt P08173).
T1 construct: expressed in transfected cells; host or cells: CHO-K1
T1 sequence (P08173 1-479): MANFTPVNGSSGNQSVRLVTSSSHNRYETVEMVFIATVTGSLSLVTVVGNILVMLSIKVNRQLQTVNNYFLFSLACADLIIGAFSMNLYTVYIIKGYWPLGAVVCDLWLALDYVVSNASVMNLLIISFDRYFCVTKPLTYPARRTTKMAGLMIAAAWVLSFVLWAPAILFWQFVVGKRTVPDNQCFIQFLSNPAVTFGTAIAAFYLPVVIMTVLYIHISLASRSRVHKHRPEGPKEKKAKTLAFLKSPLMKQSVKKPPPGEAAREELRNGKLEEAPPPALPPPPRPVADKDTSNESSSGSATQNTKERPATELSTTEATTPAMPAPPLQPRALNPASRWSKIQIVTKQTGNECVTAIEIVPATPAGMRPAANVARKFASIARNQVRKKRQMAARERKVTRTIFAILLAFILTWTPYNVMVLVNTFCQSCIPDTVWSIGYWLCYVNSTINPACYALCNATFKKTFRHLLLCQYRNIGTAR
Briefly: human FLIPR-based M4 PAM assay (Ca2+ mobilization, CHO-K1 cells with human M4 receptor and Gαqi5). The conditions noted are these: acetylcholine at 20% of maximum response, read-out: M4 PAM IP. Type of assay: cell-based. The protocol: In a typical experiment the M4 muscarinic acetylcholine receptor modulating activity of the compounds of the present invention was determined in accordance with the following experimental method. CHO-K1 cells stably transfected with human M4 receptor and chimeric G-protein Gαqi5 (Coward P, et al., Analytical Biochemistry, 270:242-248 (1999)) are thawed from liquid N2 storage, resuspended in growth medium, plated in black, clear bottom 384 well plates, and incubated 16-20 hours at 37° C., 5% CO2. On the day of assay, growth medium is removed, the cells are washed 2 times with wash buffer, and cells are incubated in dye loading buffer at 37° C., 5% CO2 for ˜1 hour. […] Next, 10 uL of acetylcholine is added (final concentration calculated so as to achieve 20% of the maximum acetycholine response), and the fluorescence reading is continued for 3.5 min. In some cases, a third addition of acetylcholine (final concentration calculated to achieve 70% of the maximal acetylcholine response) is performed. The resulting dose response curves are fit to a 4 parameter logistic equation and the final result is determined as the inflection point (IP) of the curve
CHO-K1 cells stably transfected with human M4 receptor and chimeric G-protein Gαqi5 are thawed from liquid N2 storage, resuspended in growth medium, plated in black, clear bottom 384 well plates, and incubated 16-20 hours at 37° C., 5% CO2.
On the day of assay, growth medium is removed, the cells are washed 2 times with wash buffer, and cells are incubated in dye loading buffer at 37° C., 5% CO2 for ˜1 h. […] Next, 10 uL of acetylcholine is added (final concentration calculated so as to achieve 20% of the maximum acetycholine response), and the fluorescence reading is continued for 3.5 min. In some cases, a third addition of acetylcholine (final concentration calculated to achieve 70% of the maximal acetylcholine response) is performed.
Background: A change in cytosolic calcium serves as a functional read-out for many receptors and channels.
Consider `Cc1cc2c(nc1N1CC[C@H](Oc3cccc(C#N)c3)[C@H](F)C1)CNC2=O` [Example 19, 3-(((3R,4S)-3-fluoro-1-(3-methyl-5-oxo-6,7-dihydro-5H-pyrrolo[3,4-b]pyridin-2-yl)piperidin-4-yl)oxy)benzonitrile], for which the EC50 was found to be 57 nM.
With `Cc1cc2c(nc1N1CC[C@H](Oc3cccc(C#N)c3)[C@@H](F)C1)CNC2=O` [Example 20, 3-(((3S,4S)-3-fluoro-1-(3-methyl-5-oxo-6,7-dihydro-5H-pyrrolo[3,4-b]pyridin-2-yl)piperidin-4-yl)oxy)benzonitrile], the EC50 worked out at 83 nM.
Consider `Cc1cc2c(nc1N1CC[C@@H](Oc3cccc(C#N)c3)[C@H](F)C1)CNC2=O` [Example 21, 3-(((3R,4R)-3-fluoro-1-(3-methyl-5-oxo-6,7-dihydro-5H-pyrrolo[3,4-b]pyridin-2-yl)piperidin-4-yl)oxy)benzonitrile], for which the EC50 was found to be 50 nM.
As to `Cc1cc2c(nc1N1CCC(Oc3ccc4c(c3)CCCN4)CC1)CNC2=O` [Example 22, 3-methyl-2-(4-((1,2,3,4-tetrahydroquinolin-6-yl)oxy)piperidin-1-yl)-6,7-dihydro-5H-pyrrolo[3,4-b]pyridin-5-one], the EC50 stood at 32 nM.
Regarding `Cc1cc2c(nc1N1CC[C@H](Oc3ccc4c(cnn4C)c3)[C@H](F)C1)CNC2=O` [Example 23, 2-((3R,4S)-3-fluoro-4-((1-methyl-1H-indazol-5-yl)oxy)piperidin-1-yl)-3-methyl-6,7-dihydro-5H-pyrrolo[3,4-b]pyridin-5-one], the EC50 is 70 nM.
For `Cc1cc2c(nc1N1CC[C@H](Oc3ccc4c(cnn4C)c3)[C@@H](F)C1)CNC2=O` [Example 24, 2-((3S,4S)-3-fluoro-4-((1-methyl-1H-indazol-5-yl)oxy)piperidin-1-yl)-3-methyl-6,7-dihydro-5H-pyrrolo[3,4-b]pyridin-5-one], the EC50 came to 167 nM.
Take `Cc1cc2c(nc1N1CC[C@@H](Oc3ccc4c(cnn4C)c3)[C@H](F)C1)CNC2=O` [Example 25, 2-((3R,4R)-3-fluoro-4-((1-methyl-1H-indazol-5-yl)oxy)piperidin-1-yl)-3-methyl-6,7-dihydro-5H-pyrrolo[3,4-b]pyridin-5-one]: the EC50 worked out at 75 nM.
With `Cc1cc2c(nc1N1CCC(Oc3ccc4[nH]ccc4c3)CC1)CNC2=O` [Example 26, 2-(4-((1H-indol-5-yl)oxy)piperidin-1-yl)-3-methyl-6,7-dihydro-5H-pyrrolo[3,4-b]pyridin-5-one] the figure was 28 nM.
Consider `Cc1cc2c(nc1N1CCC(Oc3ccc4c(ccn4C)c3)CC1)CNC2=O` [Example 27, 3-methyl-2-(4-((1-methyl-1H-indol-5-yl)oxy)piperidin-1-yl)-6,7-dihydro-5H-pyrrolo[3,4-b]pyridin-5-one], for which the EC50 worked out at 43 nM.
On to `Cc1cc2c(nc1N1CCC(Oc3cccc(C#N)c3)CC1)[C@@H](C)N(C)C2=O` [Example 28A, (R)-3-((1-(3,6,7-trimethyl-5-oxo-6,7-dihydro-5H-pyrrolo[3,4-b]pyridin-2-yl)piperidin-4-yl)oxy)benzonitrile], for which the EC50 came to 84 nM.
In the case of `Cc1cc2c(nc1N1CCC(Oc3cccc(C#N)c3)CC1)[C@H](C)N(C)C2=O` [Example 28B, (S)-3-((1-(3,6,7-trimethyl-5-oxo-6,7-dihydro-5H-pyrrolo[3,4-b]pyridin-2-yl)piperidin-4-yl)oxy)benzonitrile], the EC50 was 1980 nM.
For `COc1ccc(O[C@@H]2CCN(c3nc4c(cc3C)C(=O)NC4)C[C@@H]2C)cn1` [Example 29A, 2-((3S,4R)-4-((6-methoxypyridin-3-yl)oxy)-3-methylpiperidin-1-yl)-3-methyl-6,7-dihydro-5H-pyrrolo[3,4-b]pyridin-5-one], the EC50 amounted to 63 nM.
Turning to `COc1ccc(O[C@H]2CCN(c3nc4c(cc3C)C(=O)NC4)C[C@H]2C)cn1` [Example 29B, 2-((3R,4S)-4-((6-methoxypyridin-3-yl)oxy)-3-methylpiperidin-1-yl)-3-methyl-6,7-dihydro-5H-pyrrolo[3,4-b]pyridin-5-one], the EC50 amounted to 30000 nM.
For `COc1ccc(O[C@@H]2CCN(c3nc4c(cc3C)C(=O)NC4)C[C@H]2F)cn1` [Example 30, 2-((3R,4R)-3-fluoro-4-((6-methoxypyridin-3-yl)oxy)piperidin-1-yl)-3-methyl-6,7-dihydro-5H-pyrrolo[3,4-b]pyridin-5-one], the EC50 stood at 25 nM.
Consider `Cc1cc2c(nc1N1CC[C@@H](Oc3ccc4c(cnn4C)c3)[C@@H](F)C1)CN(C)C2=O` [Example 31, 2-((3S,4R)-3-fluoro-4-((1-methyl-1H-indazol-5-yl)oxy)piperidin-1-yl)-3,6-dimethyl-6,7-dihydro-5H-pyrrolo[3,4-b]pyridin-5-one], for which the EC50 was 42 nM.
Regarding `Cc1cc2c(nc1N1CCC(Oc3ccc4c(cnn4C)c3)CC1)CN(C)C2=O` [Example 32, 3,6-dimethyl-2-(4-((l-methyl-1H-indazol-5-yl)oxy)piperidin-1-yl)-6,7-dihydro-5H-pyrrolo[3,4-b]pyridin-5-one], the EC50 is 37 nM.
Take `COc1ccc(O[C@@H]2CCN(c3nc4c(cc3C)C(=O)N(C)C4)C[C@@H]2F)cn1` [Example 33, 2-((3S,4R)-3-fluoro-4-((6-methoxypyridin-3-yl)oxy)piperidin-1-yl)-3,6-dimethyl-6,7-dihydro-5H-pyrrolo[3,4-b]pyridin-5-one]: the EC50 is 22 nM.
For the compound `CCOc1ccc(OC2CCN(c3nc4c(cc3C)C(=O)NC4)CC2)cn1` [Example 34, 2-(4-((6-ethoxypyridin-3-yl)oxy)piperidin-1-yl)-3-methyl-6,7-dihydro-5H-pyrrolo[3,4-b]pyridin-5-one], the EC50 turned out to be 26 nM.
In the case of `Cc1cc2c(nc1N1CC[C@@H](Oc3ccccc3)[C@@H](F)C1)CNC2=O` [Example 35, 2-((3S,4R)-3-fluoro-4-phenoxypiperidin-1-yl)-3-methyl-6,7-dihydro-5H-pyrrolo[3,4-b]pyridin-5-one], the EC50 was 24 nM.
Take `Cc1cc2c(nc1N1CCC(OCC3(C#N)CC3)CC1)CNC2=O` [Example 36, 1-(((1-(3-methyl-5-oxo-6,7-dihydro-5H-pyrrolo[3,4-b]pyridin-2-yl)piperidin-4-yl)oxy)methyl)cyclo-propane-1-carbonitrile]: the EC50 stood at 302 nM.
Regarding `Cc1cc2c(nc1N1CCC(Oc3ccc(OC4CCC4)nc3)CC1)CNC2=O` [Example 37, 2-(4-((6-cyclobutoxypyridin-3-yl)oxy)piperidin-1-yl)-3-methyl-6,7-dihydro-5H-pyrrolo[3,4-b]pyridin-5-one], the EC50 stood at 172 nM.
In the case of `Cc1cc2c(nc1N1CCC(Oc3ccc4c(c3)COC4)CC1)CN(C)C2=O` [Example 38, 2-(4-((1,3-dihydro-2-benzofuran-5-yl)oxy)piperidin-1-yl)-3,6-dimethyl-6,7-dihydro-5H-pyrrolo[3,4-b]pyridin-5-one], the EC50 was 30 nM.
In the case of `Cc1cc2c(nc1N1CC[C@@H](Oc3cccc4c3COC4)[C@@H](F)C1)CNC2=O` [Example 39, 2-((3S,4R)-4-((1,3-dihydro-2-benzofuran-4-yl)oxy)-3-fluoropiperidin-1-yl)-3-methyl-6,7-dihydro-5H-pyrrolo[3,4-b]pyridin-5-one], the EC50 worked out at 1600 nM.
On to `Cc1cc2c(nc1N1CC[C@@H](Oc3ccc4c(c3)COC4)[C@@H](F)C1)CNC2=O` [Example 40, 2-((3S,4R)-4-((1,3-dihydro-2-benzofuran-5-yl)oxy)-3-fluoropiperidin-1-yl)-3-methyl-6,7-dihydro-5H-pyrrolo[3,4-b]pyridin-5-one], for which the EC50 came to 17 nM.
As to `Cc1cc2c(nc1N1CCC(OC3CCOC3)CC1)CNC2=O` (stereo not drawn) [Example 41, 3-methyl-2-(4-((tetrahydrofuran-3-yl)oxy)piperidin-1-yl)-6,7-dihydro-5H-pyrrolo[3,4-b]pyridin-5-one], the EC50 is 11300 nM.
For the compound `Cc1cc2c(nc1N1CCC(OC3CCOCC3)CC1)CNC2=O` [Example 42, 3-methyl-2-(4-((tetrahydro-2H-pyran-4-yl)oxy)piperidin-1-yl)-6,7-dihydro-5H-pyrrolo[3,4-b]pyridin-5-one], the EC50 was determined as 1730 nM.
As to `Cc1cc2c(nc1N1CC[C@@H](Oc3cccc(C#N)c3)[C@H](O)C1)CNC2=O` [Example 43A, 3-(((3R,4R)-3-hydroxy-1-(3-methyl-5-oxo-6,7-dihydro-5H-pyrrolo[3,4-b]pyridin-2-yl)piperidin-4-yl)oxy)benzonitrile], the EC50 was 155 nM.
